Measured values: publication PMC6155626 (Molecules : A Journal of Synthetic Chemistry and Natural …, 2016)
≈ marks a conversion by molar mass, not a printed value. Where “and” joins values, the source holds several entries; their conditions need not be identical. Identical values can stand only once. Like-named read-outs stand apart in the source and are kept apart here.

Experiments:
Ralstonia solanacearum = experiment: microbe, parasite or virus in culture; format: cell-based; conditions: for EC50 / Inhibition rate: R. solanacearum; for Inhibition rate: average of three replicates; for inhibition at 100 µg/mL / inhibition at 200 µg/mL: read-out: Inhibition rate
X. oryzae in rice plant = format: in vivo, Xanthomonas oryzae pv. oryzae; conditions: 200 μg/mL, 14 days after spraying
[1] = test system: Xanthomonas axonopodis pv. citri; experiment: microbe, parasite or virus in culture; format: cell-based; conditions: for inhibition at 100 µg/mL / inhibition at 200 µg/mL: read-out: Inhibition rate
[2] = test system: Xanthomonas oryzae pv. oryzae; experiment: microbe, parasite or virus in culture; format: cell-based; conditions: for Inhibition rate: average of three replicates; for inhibition at 100 µg/mL: read-out: Inhibition rate, X. oryzae, 100 μg/mL, average of three replicates; for inhibition at 200 µg/mL: read-out: Inhibition rate, X. oryzae, 200 μg/mL, average of three replicates
[3] = test system: Xanthomonas oryzae pv. oryzae; conditions: X. oryzae; previously reported analog, X = CH2; cited from earlier work
[4] = test system: rice seeds (Fengyou Xiangzhan)
tobacco leaves = conditions: for Necrosis (lesion diameter) on tobacco leaves: Nicotiana benthamiana (tobacco)
[5] = 50 to 300 μM, four days after inoculation
[6] = Fengyou Xiangzhan, rice, in vivo

SMILES	melting point	inhibition at 100 µg/mL (Ralstonia solanacearum; Ralstonia solanacearum)	inhibition at 200 µg/mL (Ralstonia solanacearum; Ralstonia solanacearum)	inhibition at 100 µg/mL ([1]; Xanthomonas axonopodis)	inhibition at 200 µg/mL ([1]; Xanthomonas axonopodis)	inhibition at 100 µg/mL ([2]; Xanthomonas oryzae)	inhibition at 200 µg/mL ([2]; Xanthomonas oryzae)	further results
Nc1nnc([S-])s1.Nc1nnc([S-])s1.[Cu+2] [Thiodiazole-copper, 2-amino-5-mercapto-1,3,4-thiadiazole-copper, reference compound]	–	–	–	–	–	–	–	EC50 (Ralstonia solanacearum): >200 mg/L; Inhibition rate (Ralstonia solanacearum; 100 μg/mL): 35%; Inhibition rate (Ralstonia solanacearum; 200 μg/mL): 50%; Disease Index (X. oryzae in rice plant): 55.6; Morbidity (X. oryzae in rice plant): 100.0%; Protective Efficiency (X. oryzae in rice plant): 32.0 ± 3.0%; Protective Efficiency (X. oryzae in rice plant; listed as Thiadiazole-copper): 32.0%; EC50 [1]: 107.04 ± 1.96 mg/L; Inhibition rate [1]: 65% and 47%; EC50 ([2]; X. oryzae): 121.82 ± 3.59 mg/L; Inhibition rate ([2]; X. oryzae, 100 μg/mL): 35%; Inhibition rate ([2]; X. oryzae, 200 μg/mL): 69%
CS(=O)(=O)c1nnc(COc2ccc(Cl)cc2)s1 [Compound 5II-2, 2-((4-Chlorophenoxy)methyl)-5-(methylsulfonyl)-1,3,4-thiadiazole]	119 to 120 °C	45%	56%	16%	27%	73%	84 to 99%	Inhibition rate ([2]; X. oryzae, 200 μg/mL): 84%
Cc1cc(Cl)ccc1OCc1nnc(S(=O)(=O)Cc2ccccc2)o1 [Compound 5I-13, 2-(Benzylsulfonyl)-5-((4-chloro-2-methylphenoxy)methyl)-1,3,4-oxadiazole]	144 to 145 °C	8%	15%	0%	7%	13%	33%	–
CS(=O)(=O)c1nnc(Cc2ccc(F)cc2)o1 [C00001 (R = F, X = CH2), 2-(4-fluorobenzyl)-5-(methylsulfonyl)-1,3,4-oxadiazole]	–	–	–	–	–	–	–	EC50 [3]: 1.07 ± 0.68 ^15 μg/mL
O=S(=O)(Cc1ccccc1)c1nnc(COc2ccc(Cl)cc2Cl)s1 [Compound 5II-11, 2-(Benzylsulfonyl)-5-((2,4-dichlorophenoxy)methyl)-1,3,4-thiadiazole]	124 to 125 °C	26%	27%	32%	38%	14%	37%	–
CS(=O)(=O)c1nnc(COc2ccc(Cl)cc2)o1 [Compound 5I-2, 2-((4-Chlorophenoxy)methyl)-5-(methylsulfonyl)-1,3,4-oxadiazole]	113 to 114 °C	100%	100%	76%	88%	100%	100%	EC50 (Ralstonia solanacearum; Ralstonia solanacearum): 13.4 ± 1.54 mg/L (≈ 46.5 µM); Disease Index (X. oryzae in rice plant): 23.8; Morbidity (X. oryzae in rice plant): 100.0%; Protective Efficiency (X. oryzae in rice plant): 77.7% and 77.7 ± 3.4%; EC50 ([1]; Xanthomonas axonopodis): 31.4 ± 3.56 mg/L (≈ 109 µM); EC50 ([2]; Xanthomonas oryzae): 1.44 ± 0.18 mg/L (≈ 4.99 µM); Phenotypic effect on rice seedlings, root growth and shoot development (in words) ([4]; concentration (1–300 μM)): no apparently phytotoxicity; Phenotypic effect on rice seedlings, root growth and shoot development (in words) ([4]; in vivo): predominantly inhibited root growth while allowing moderate shoot development; Phytotoxic effect on tobacco plant (in words) (tobacco leaves; [5]): no apparently phytotoxicity; Necrosis (lesion diameter) on tobacco leaves (tobacco leaves; in vivo): 0.2–0.3 cm; Phytotoxic effect on tobacco plant (in words) (tobacco leaves; in vivo): no or negligible phytotoxic effect
O=S(=O)(Cc1ccccc1)c1nnc(COc2ccc(F)cc2)o1 [Compound 5I-9, 2-(Benzylsulfonyl)-5-((4-fluorophenoxy)methyl)-1,3,4-oxadiazole]	94 to 96 °C	25%	33%	50%	72%	100%	100%	–
CS(=O)(=O)c1nnc(COc2ccc(Cl)cc2Cl)o1 [Compound 5I-4, 2-((2,4-Dichlorophenoxy)methyl)-5-(methylsulfonyl)-1,3,4-oxadiazole]	–	100%	100%	48%	69%	100%	100%	EC50 (Ralstonia solanacearum; Ralstonia solanacearum): 20.5 ± 1.56 mg/L (≈ 63.5 µM); Morbidity (X. oryzae in rice plant): 100.0%; EC50 ([1]; Xanthomonas axonopodis): 49 ± 2.34 mg/L (≈ 152 µM); EC50 ([2]; Xanthomonas oryzae): 0.72 ± 0.15 mg/L (≈ 2.23 µM); Phenotypic effect on rice seedlings, root growth and shoot development (in words) [4, 6]: severely inhibited both root growth and shoot development even at the lowest concentration 1 μM; Phenotypic effect on rice seedlings, root growth and shoot development (in words) ([4]; concentration (1–300 μM)): highly suppressed both root and shoot development; Necrosis (lesion diameter) on tobacco leaves (tobacco leaves; in vivo): 0.2–0.3 cm; Phytotoxic effect on tobacco plant (in words) (tobacco leaves; in vivo): no or negligible phytotoxic effect
O=S(=O)(Cc1ccccc1)c1nnc(COc2ccc(Cl)cc2Cl)o1 [Compound 5I-12, 2-(Benzylsulfonyl)-5-((2,4-dichlorophenoxy)methyl)-1,3,4-oxadiazole]	121 to 122 °C	20%	33%	23%	26%	70%	98%	–
CS(=O)(=O)c1nnc(COc2ccc(F)cc2)s1 [Compound 5II-1, 2-((4-Fluorophenoxy)methyl)-5-(methylsulfonyl)-1,3,4-thiadiazole]	107 to 109 °C	49%	50%	36%	40%	92%	84 to 99%	Inhibition rate ([2]; X. oryzae, 200 μg/mL): 99%
CS(=O)(=O)c1nnc(COc2ccc(Br)cc2)o1 [Compound 5I-3, 2-((4-Bromophenoxy)methyl)-5-(methylsulfonyl)-1,3,4-oxadiazole]	97 to 99 °C	100%	100%	90%	91%	100%	100%	EC50 (Ralstonia solanacearum; Ralstonia solanacearum): 19.6 ± 0.98 mg/L (≈ 58.9 µM); EC50 ([1]; Xanthomonas axonopodis): 24.9 ± 2.52 mg/L (≈ 74.7 µM); EC50 ([2]; Xanthomonas oryzae): 1.67 ± 0.22 mg/L (≈ 5.01 µM)
O=S(=O)(Cc1ccccc1)c1nnc(COc2ccc(F)cc2)s1 [Compound 5II-8, 2-(Benzylsulfonyl)-5-((4-fluorophenoxy)methyl)-1,3,4-thiadiazole]	132 to 134 °C	10%	30%	21%	24%	8%	24%	–
O=S(=O)(Cc1ccccc1)c1nnc(COc2ccc(Br)cc2)o1 [Compound 5I-11, 2-(Benzylsulfonyl)-5-((4-bromophenoxy)methyl)-1,3,4-oxadiazole]	142 to 143 °C	13%	18%	16%	11%	38%	56%	–
CS(=O)(=O)c1nnc(COc2ccc(F)cc2)o1 [Compound 5I-1, 2-(4-Fluorophenoxymethyl)-5-(methylsulfonyl)-1,3,4-oxadiazole]	108 to 110 °C	100%	100%	72%	80%	100%	100%	EC50 (Ralstonia solanacearum): 1.97 ± 0.23 mg/L (≈ 7.24 µM); EC50 (Ralstonia solanacearum; Ralstonia solanacearum): 1.67 mg/L (≈ 6.13 µM); Disease Index (X. oryzae in rice plant): 15.6; Morbidity (X. oryzae in rice plant): 100.0%; Protective Efficiency (X. oryzae in rice plant): 90.4% and 90.4 ± 2.8%; EC50 ([1]; Xanthomonas axonopodis): 80.5 ± 5.38 mg/L (≈ 296 µM); EC50 ([2]; Xanthomonas oryzae): 0.45 ± 0.06 mg/L (≈ 1.65 µM); Phenotypic effect on rice seedlings, root growth and shoot development (in words) [4, 6]: barely effected root growth or inhibited shoot development at concentration 1–100 μM; Phenotypic effect on rice seedlings, root growth and shoot development (in words) ([4]; concentration (1–300 μM)): no apparently phytotoxicity; Phytotoxic effect on tobacco plant (in words) (tobacco leaves; [5]): no apparently phytotoxicity; Necrosis (lesion diameter) on tobacco leaves (tobacco leaves; in vivo): 0.2–0.3 cm; Phytotoxic effect on tobacco plant (in words) (tobacco leaves; in vivo): no or negligible phytotoxic effect
